# Source: paper PMC3607106 (Biochemistry, 2009)
# Legend:
# [1] = target: 2PITC-modified MIF (human MIF covalently modified at Pro1 by 2-piperidinoethyl isothiocyanate) (human) (UniProt P14174); experiment: SEC-MALS
# [2] = target: T1, MIF (Homo sapiens, UniProt P14174); experiment: Covalent modification of MIF by MALDI-TOF MS and tryptic peptide mapping; format: binding; details: for site of covalent modification of MIF: trypsin digestion, peptide mapping, MS/MS, 10 μM
# T1 sequence (P14174 2-115): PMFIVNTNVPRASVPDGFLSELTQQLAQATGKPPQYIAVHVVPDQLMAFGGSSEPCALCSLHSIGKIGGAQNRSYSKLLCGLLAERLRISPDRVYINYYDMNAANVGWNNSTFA
# [3] = target: T1, MIF; experiment: MIF tautomerase activity; format: biochemical
# [4] = target: murine MIF (Mus musculus, UniProt P34884); experiment: MIF tautomerase activity; format: biochemical; details: read-out: inhibition of the tautomerase activity
# [5] = target: α-synuclein (Homo sapiens, UniProt P37840); experiment: BITC modification specificity by MALDI-TOF; format: binding; details: equimolar, 1 h or overnight at RT
# [6] = test system: MIF; experiment: Covalent modification of MIF by MALDI-TOF MS and tryptic peptide mapping; format: binding, human; details: 10 μM BITC, 60 min
# [7] = target: ubiquitin (Homo sapiens, UniProt P0CG47); experiment: BITC modification specificity by MALDI-TOF; format: binding; details: equimolar, 1 h or overnight at RT
# [8] = test system: human macrophages; experiment: Glucocorticoid overriding assay; format: cell-based
# [9] = test system: lysozyme; experiment: BITC modification specificity by MALDI-TOF; format: binding; details: equimolar, 1 h or overnight at RT
# [10] = test system: HeLa cells; experiment: Phospho Akt activation by MIF; format: cell-based, human
# [11] = target: T1, MIF; experiment: Sedimentation velocity analytical ultracentrifugation of MIF; details: MIF 10 μM preincubated with 6 μM BITC 1 h RT
# [12] = target: AITC-modified MIF (human MIF covalently modified at Pro1 by allyl isothiocyanate) (human) (UniProt P14174); experiment: SEC-MALS
# [13] = target: BITC-modified MIF (human MIF covalently modified at Pro1 by benzyl isothiocyanate) (human) (UniProt P14174); experiment: SEC-MALS
# [14] = target: BITC-modified MIF (human MIF covalently modified at Pro1 by benzyl isothiocyanate) (human) (UniProt P14174); experiment: AUC
# [15] = target: EITC-modified MIF (human MIF covalently modified at Pro1 by ethyl isothiocyanate) (human) (UniProt P14174); experiment: SEC-MALS
# [16] = target: MITC-modified MIF (human MIF covalently modified at Pro1 by methallyl isothiocyanate) (human) (UniProt P14174); experiment: SEC-MALS
# [17] = target: human macrophage migration inhibitory factor (MIF), unmodified (human) (UniProt P14174); experiment: SEC-MALS
# [18] = target: human macrophage migration inhibitory factor (MIF), unmodified (human) (UniProt P14174); experiment: AUC
molecule,measurement,setting,value
2PITC-modified MIF (human MIF covalently modified at Pro1 by 2-piperidinoethyl isothiocyanate) (from UniProt P14174 1-115) (natural protein),stoichiometry N,[1],3
"S=C=NCCN1CCCCC1 [2PITC, 2-Piperidinoethyl isothiocyanate]",site of covalent modification of MIF,[2],shown to modify MIF at the N-terminal Pro residue
same,IC50,[3],3.09 µM
"C=CCN=C=S [AITC, allyl isothiocyamate]",site of covalent modification of MIF,[2],shown to modify MIF at the N-terminal Pro residue
"S=C=NCc1ccccc1 [BITC, Benzyl isothiocyanate]",inhibition at 10 µM,[4],100%
same,modification of α-synuclein (MS),[5],No modification was detected
same,modification of inactive MIF proteins,"[6]; R73AΔ5, R73AΔ10 or P107",no modification was observed
same,modification of enzymatically active forms of MIF,"[6]; Wt, N110C and R73A",total modification
same,formation of BITC-MIF adduct (MALDI-TOF),"[2]; concentrations > 10 μM, MIF 15 μM, Tris 50 mM pH 7.4, 60 min",complete conversion to the singly modified form of MIF
same,site of covalent modification of MIF,[2],modification takes place at the N-terminal proline residue
same,modification of ubiquitin (MS),[7],No modification was detected
same,MIF-mediated dexamethasone overriding,"[8]; BITC 10 μM, MIF 100 ng/mL, Dex 100 nM, LPS 100 ng/mL, 4 h",abrogated MIF-mediated dexamethasone overriding
same,TNF production,"[8]; BITC 10 μM, LPS-stimulated, compared with dexamethasone",decreased TNF production even more potently than dexamethasone
same,macrophage viability,[8]; culture conditions used to induce TNF production (data not shown),did not alter macrophage viability
same,modification of lysozyme (MS),[9],No modification was detected
same,MIF-induced Akt phosphorylation,"[10]; BITC 1 and 10 μM, MIF 50 ng/mL, 2 h",inhibited MIF-induced Akt phosphorylation
same,baseline Akt phosphorylation,[10]; BITC alone,did not modify baseline Akt phosphorylation
same,inhibition at 10 µM,[3]; read-out: inhibition of the tautomerase activity,100%
same,quaternary structure distribution of MIF (sedimentation velocity),[11],sedimented predominantly as a single species
"S=C=NC1CC1 [CPITC, cyclopropyl isothiocyanate]",site of covalent modification of MIF,[2],shown to modify MIF at the N-terminal Pro residue
"CCN=C=S [EITC, ethyl isothiocyanate]",site of covalent modification of MIF,[2],shown to modify MIF at the N-terminal Pro residue
"C=C(C)CN=C=S [MITC, methallyl Isothiocyanate]",site of covalent modification of MIF,[2],shown to modify MIF at the N-terminal Pro residue
"C[C@@H]1C[C@H]2[C@@H]3CCC4=CC(=O)C=C[C@]4(C)[C@@]3(F)[C@@H](O)C[C@]2(C)[C@@]1(O)C(=O)CO [dexamethasone, reference compound]",TNF production by LPS-stimulated monocytes,[8]; dexamethasone 100 nM,inhibited TNF production
AITC-modified MIF (human MIF covalently modified at Pro1 by allyl isothiocyanate) (from UniProt P14174 1-115) (natural protein),stoichiometry N,[12],3
BITC-modified MIF (human MIF covalently modified at Pro1 by benzyl isothiocyanate) (from UniProt P14174 1-115) (natural protein),stoichiometry N,[13],3
same,stoichiometry N,[14],3
EITC-modified MIF (human MIF covalently modified at Pro1 by ethyl isothiocyanate) (from UniProt P14174 1-115) (natural protein),stoichiometry N,[15],3
MITC-modified MIF (human MIF covalently modified at Pro1 by methallyl isothiocyanate) (from UniProt P14174 1-115) (natural protein),stoichiometry N,[16],3
"human macrophage migration inhibitory factor (MIF), unmodified (from UniProt P14174 1-115) (natural protein)",stoichiometry N,[17],3
same,stoichiometry N,[18],3
